From patent US20120142731A1, “METHODS OF INHIBITING VIRAL INFECTION” (Functional Genetics, Inc., priority 2007, published 2012)

How the values were obtained:
[1] = mammalian models; oral, IP, IV administration; cited from earlier work
HCV [2] = assay: Viral release assay, HCV from Huh1 cells
HBV [3] = assay: HBV primary assay in HepG2 cells (virion DNA); assay type: cell-based, Hepatitis B virus; conditions: blinded NIAID study
[4] = 28 day course of administration; cited from earlier work
N5A of HCV = assay type: cell-based, Hepatitis C virus; conditions: 2.5 uM
in vitro = conditions: African green monkey
HIV-1 = HIV-1 luciferase assay in infected MT-4 cells
[5] = tested on: Venezuelan Equine Encephalomyelitis (VEE); assay type: cell-based; conditions: 25 uM, administered 3 days post-infection
cowpox = assay: organism not typed; assay type: cell-based; conditions: Vero
replicon formation = assay type: cell-based
Stability to light = assay type: physicochemical
Excerpt: R24 is subject to straight forward synthesis. […] The range of carriers available, is therefore, quite large. As a consequence, the compositions and methods of this invention embrace the FGI-104 compounds as neat solids, as pharmaceutically suitable preparations, in a pharmaceutically acceptable carrier of a variety of types. Compositions of the present invention may further comprise a pharmaceutical composition comprising a therapeutically effective amount of any of the small molecules (or combinations of small molecules) described above together with other materials, such as a suitable carrier, excipients, etc., for administration to a human or animal experiencing a viral infection or at risk of a viral infection. Such pharmaceutical compositions may be in solid, gel or liquid form and may be administered as appropriate to an individual IV, IM, IP or parenterally, topically, subcutaneously, orally, or through mucosal surfaces and routes (including, for example, rectal and vaginal suppositories). The exact dosage corresponding to a therapeutically effective amount will vary from mammal to mammal and virus to virus. […]

PRRS virus = assay: PRRS inhibition in primary porcine lung alveolar macrophages; assay type: cell-based, porcine reproductive and respiratory syndrome (PRRS) virus; conditions: administration 72 hours post infection
Excerpt: As noted above, important mammalian hosts treatable by this family of compounds include not only humans, but veterinarily and commercially important animals. Although monkeys, dogs, cats, mice, rats, horses, rabbits, cattle, sheep and goats are all important hosts to be treated for viral infection, pigs may be the dominant commercial animal, worldwide. The United States Department of Agriculture has characterized PRRS virus as a significant, worldwide, agricultural concern related to animal health and causes large economic losses to producers, and labeled a biosecurity threat. (Project 2008-2017).

HCV [6] = assay type: cell-based, Hepatitis C virus
HBV [7] = assay: Viral release assay, HBV from Huh1 cells; assay type: cell-based, Hepatitis B virus
malaria = conditions: cited from earlier work

Row | Structure (SMILES) | tolerability [1] | preventing viral release (HCV [2]) | activity as measured by virion DNA (HBV [3]) | chromosomal instability [4] | signal protein N5A of HCV in protein blot (N5A of HCV) | CC50 (in vitro) | EC50 (HIV-1; Human immunodeficiency virus 1, MT4, 72 h) | luciferase detection (HIV-1; MT-4 cells, relatively low dose, 72 hours post infection) | inhibition of VEE [5] | EC50 (cowpox) | inhibition of replicon formation (replicon formation) | stability to light (Stability to light) | effectiveness as reflected by the EC90 value (PRRS virus) | inhibition of the virus (luciferase signal) (HCV [6]) | preventing viral release (HBV [7]) | efficacy against chloroquinoline-resistant malarial strains (malaria; chloroquinoline-resistant strains) | efficacy against the parasite based disease (malaria) (malaria; compared with chloroquinoline)
1 | CC(C)(C)NCc1cc(Nc2ccnc3cc(Cl)ccc23)cc(-c2ccc(Cl)cc2)c1O [Compound R24, 4′-chloro-5-[(7-chloro-4-quinolinyl)amino]-3-(1,1-dimethylethylamino)methyl [1,1′-biphenyl]-2-ol] | well tolerated | effective in preventing viral release | high level of activity | not to induce significant chromosomal instability | completely missing | > 25 µM | 8.5 µM | effective zero | dramatic inhibition | 0.25 µM | does little to inhibit replicon formation | instability to light | spectacular effectiveness | 100% | effective in preventing viral release |  | 
2 | CC(C)(C)NCc1cc(Nc2ccnc3cc(Cl)ccc23)cc(-c2ccc(Cl)cc2)c1O.Cl.Cl [WR-228,258 2HCl, 4′-chloro-5-[(7-chloro-4-quinolinyl)amino]-3-(1,1-dimethylethylamino)methyl[1,1′-biphenyl]-2-ol dihydrochloride] | well tolerated |  |  |  |  |  |  |  |  |  |  |  |  |  |  | not effective | effective against the parasite based disease at about the same level as the dominant treatment
